From ChEMBL document CHEMBL5050844 (2019)
pIC50, pKd: −log10 of the molar value.

Assays:
[1] = Induction of activation of human CD56+ CD3- NK cells co-cultured with human K562 cells in 1:1 ratio and assessed as increase in TNF-alpha secretion at 1 uM measured by ELISA assay; type: functional, Natural killer cell
[2] = Induction of anti-CD3 antibodies-stimulated human T cell activation at 1.11 uM assessed fold increase in TNF-alpha secretion measured by ELISA assay; type: functional, T cell line; note: reference of the scale not given here
[3] = Induction of activation of human CD56+ CD3- NK cells co-cultured with human K562 cells in 5:1 ratio and assessed as increase in TNF-alpha secretion at 10 uM measured by ELISA assay; type: functional, Natural killer cell
[4] = Induction of anti-CD3 antibodies-stimulated human exhausted T cell activation assessed fold increase in IL-2 secretion measured by ELISA assay; type: functional, T cell line; note: reference of the scale not given here
[5] = Induction of anti-CD3 antibodies-stimulated human CD8+ T cell activation at 1.11 uM assessed fold increase in CD69 expression measured by flow cytometry analysis; type: functional, T cell line; note: reference of the scale not given here
[6] = Induction of activation of human CD56+ CD3- NK cells co-cultured with human K562 cells in 1:1 ratio and assessed as increase in IFN-gamma secretion at 0.625 uM measured by ELISA assay; type: functional, Natural killer cell
[7] = Induction of anti-CD3 antibodies-stimulated human exhausted CD8+ T cell activation assessed fold increase in CTLA4 expression measured by flow cytometry analysis; type: functional, T cell line; note: reference of the scale not given here
[8] = Induction of activation of human CD56+ CD3- NK cells co-cultured with human K562 cells in 1:1 ratio and assessed as increase in MIP1beta secretion at 10 uM measured by ELISA assay; type: functional, Natural killer cell
[9] = Induction of anti-CD3/CD28 antibodies-stimulated human CD4+ T cell activation at 1.11 uM assessed fold increase in cell proliferation measured by flow cytometry analysis; type: functional, T cell line
[10] = Induction of anti-CD3/CD28 antibodies-stimulated human T cell activation at 0.3 uM assessed fold increase in CD25 expression measured by ELISA assay; type: functional, T cell line
[11] = Induction of anti-CD3 antibodies-stimulated human T cell activation at 8 uM assessed fold increase in CD25 expression measured by ELISA assay; type: functional, T cell line; note: reference of the scale not given here
[12] = Induction of anti-CD3/CD28 antibodies-stimulated human CD4+ T cell activation at 10 uM assessed fold increase in CD69 expression measured by flow cytometry analysis; type: functional, T cell line
[13] = Induction of anti-CD3/CD28 antibodies-stimulated human T cell activation at 1 uM assessed fold increase in IL-2 secretion measured by ELISA assay; type: functional, T cell line
[14] = Induction of anti-CD3/CD28 antibodies-stimulated human CD8+ T cell activation at 1.11 uM assessed fold increase in CD69 expression measured by flow cytometry analysis; type: functional, T cell line
[15] = Induction of activation of human CD56+ CD3- NK cells co-cultured with human K562 cells in 1:1 ratio and assessed as increase in IFN-gamma secretion at 1 uM measured by ELISA assay; type: functional, Natural killer cell
[16] = Induction of activation of human CD56+ CD3- NK cells co-cultured with human K562 cells in 5:1 ratio and assessed as increase in IFN-gamma secretion at 1 uM measured by ELISA assay; type: functional, Natural killer cell
[17] = biological target: T1, E3 ubiquitin-protein ligase CBL-B (Homo sapiens, UniProt Q13191); experiment: Inhibition of N-terminal Avi-tagged human CBL-B (36 to 427 residues) incubated with 60 nM Src kinase for 1.5 hrs followed by incubation with fluorescently labeled UbcH5B-Ub for 1 hr and measured by TR-FRET assay; type: single protein
T1 sequence (Q13191 whole entry, the tested form may be a part): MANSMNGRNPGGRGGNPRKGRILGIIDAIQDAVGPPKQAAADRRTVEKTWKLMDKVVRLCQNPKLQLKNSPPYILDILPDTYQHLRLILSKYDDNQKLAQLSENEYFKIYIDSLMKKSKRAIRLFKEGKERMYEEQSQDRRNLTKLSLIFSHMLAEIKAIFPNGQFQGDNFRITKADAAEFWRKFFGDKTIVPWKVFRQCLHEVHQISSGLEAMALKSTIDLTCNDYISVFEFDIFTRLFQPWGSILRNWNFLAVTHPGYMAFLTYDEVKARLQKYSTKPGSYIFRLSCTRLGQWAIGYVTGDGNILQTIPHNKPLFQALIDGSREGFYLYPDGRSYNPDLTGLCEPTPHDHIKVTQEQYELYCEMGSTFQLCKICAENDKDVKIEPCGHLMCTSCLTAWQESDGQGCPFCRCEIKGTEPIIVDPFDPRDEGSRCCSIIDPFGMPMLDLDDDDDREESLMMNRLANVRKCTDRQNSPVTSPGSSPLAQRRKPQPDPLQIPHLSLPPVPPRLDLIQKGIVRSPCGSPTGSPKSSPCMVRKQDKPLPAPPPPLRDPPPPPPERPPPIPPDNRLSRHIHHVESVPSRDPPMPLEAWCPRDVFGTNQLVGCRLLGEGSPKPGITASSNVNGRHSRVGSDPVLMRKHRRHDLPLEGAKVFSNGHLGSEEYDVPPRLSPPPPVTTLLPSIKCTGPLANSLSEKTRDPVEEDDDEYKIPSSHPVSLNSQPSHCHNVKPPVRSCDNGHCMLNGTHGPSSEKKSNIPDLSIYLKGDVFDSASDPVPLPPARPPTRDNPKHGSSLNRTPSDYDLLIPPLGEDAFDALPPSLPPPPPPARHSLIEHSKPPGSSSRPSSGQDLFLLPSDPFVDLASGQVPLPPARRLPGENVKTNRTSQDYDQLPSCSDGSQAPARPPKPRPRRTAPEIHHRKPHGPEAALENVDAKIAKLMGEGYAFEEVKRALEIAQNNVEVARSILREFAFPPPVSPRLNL

[18] = Induction of activation of human CD56+ CD3- NK cells co-cultured with human K562 cells in 5:1 ratio and assessed as increase in TNF-alpha secretion at 1 uM measured by ELISA assay; type: functional, Natural killer cell
[19] = Induction of activation of human CD56+ CD3- NK cells co-cultured with human K562 cells in 5:1 ratio and assessed as increase in IFN-gamma secretion at 10 uM measured by ELISA assay; type: functional, Natural killer cell
[20] = Induction of anti-CD3 antibodies-stimulated human T cell activation at 10 uM assessed fold increase in IFN-gamma secretion measured by ELISA assay; type: functional, T cell line; note: reference of the scale not given here
[21] = Induction of anti-CD3/CD28 antibodies-stimulated human anergic T cell activation at 10 uM assessed fold increase in IFN-gamma secretion measured by ELISA assay; type: functional, T cell line
[22] = Induction of activation of human CD56+ CD3- NK cells co-cultured with human K562 cells in 5:1 ratio and assessed as increase in MIP1beta secretion at 10 uM measured by ELISA assay; type: functional, Natural killer cell
[23] = Induction of activation of human CD56+ CD3- NK cells co-cultured with human K562 cells in 1:1 ratio and assessed as increase in MIP1beta secretion at 1 uM measured by ELISA assay; type: functional, Natural killer cell
[24] = Induction of anti-CD3 antibodies-stimulated human CD8+ T cell activation at 10 uM assessed fold increase in CD69 expression measured by flow cytometry analysis; type: functional, T cell line; note: reference of the scale not given here
[25] = Induction of anti-CD3 antibodies-stimulated human T cell activation at 1.11 uM assessed fold increase in GM-CSF secretion measured by ELISA assay; type: functional, T cell line; note: reference of the scale not given here
[26] = Induction of activation of human CD56+ CD3- NK cells co-cultured with human K562 cells in 5:1 ratio and assessed as increase in MIP1beta secretion at 1 uM measured by ELISA assay; type: functional, Natural killer cell
[27] = biological target: T1, E3 ubiquitin-protein ligase CBL-B; experiment: Binding affinity towards N-terminal biotinylated Avi-tagged human CBL-B (36 to 427 residues) measured by surface plasmon resonance assay
[28] = Induction of anti-CD3 antibodies-stimulated human CD4+ T cell activation in immunocompetent mouse assessed fold increase in CD25 expression at 90 mg/kg, po administered twice a day; type: functional; note: reference of the scale not given here
[29] = Induction of anti-CD3 antibodies-stimulated human CD8+ T cell activation in immunocompetent mouse assessed fold increase in CD25 expression at 180 mg/kg, po administered twice a day; type: functional; note: reference of the scale not given here
[30] = Induction of anti-CD3 antibodies-stimulated human CD4+ T cell activation in immunocompetent mouse assessed fold increase in CD25 expression at 90 mg/kg, ip administered twice a day; type: functional; note: reference of the scale not given here
[31] = Induction of anti-CD3 antibodies-stimulated human CD8+ T cell activation in immunocompetent mouse assessed fold increase in CD25 expression at 90 mg/kg, po administered twice a day; type: functional; note: reference of the scale not given here
[32] = Induction of anti-CD3 antibodies-stimulated human CD8+ T cell activation in immunocompetent mouse assessed fold increase in CD25 expression at 135 mg/kg, po administered twice a day; type: functional; note: reference of the scale not given here
[33] = Induction of anti-CD3 antibodies-stimulated human CD8+ T cell activation in immunocompetent mouse assessed fold increase in CD25 expression at 90 mg/kg, ip administered thrice a day; type: functional; note: reference of the scale not given here
[34] = Induction of anti-CD3 antibodies-stimulated human CD4+ T cell activation in immunocompetent mouse assessed fold increase in CD25 expression at 180 mg/kg, po administered twice a day; type: functional; note: reference of the scale not given here
[35] = Induction of anti-CD3 antibodies-stimulated human CD4+ T cell activation in immunocompetent mouse assessed fold increase in CD25 expression at 135 mg/kg, po administered twice a day; type: functional; note: reference of the scale not given here

Row | SMILES | fold change (FC) [1] | fold change (FC) [2] | fold change (FC) [3] | fold change (FC) [4] | fold change (FC) [5] | fold change (FC) [6] | fold change (FC) [7] | fold change (FC) [8] | fold change (FC) [9] | fold change (FC) [10] | fold change (FC) [11] | fold change (FC) [12] | fold change (FC) [13] | fold change (FC) [14] | fold change (FC) [15] | pIC50 [17] | fold change (FC) [20] | fold change (FC) [21] | fold change (FC) [24] | fold change (FC) [25] | other results
1 | Cn1cnnc1C(F)(F)[C@](C)(F)c1cccc(N2Cc3c(cc(C(=O)N4CC[C@H](O)C4)cc3C(F)(F)F)C2=O)c1 | 1.01 | 2.01 | 1.01 | 2.51 | <=1.2 | 1.01 | <=1.4 | <=1 | 3.01 | 1.01 | >=1.001 | 1.401 | 2.51 | <=1.2 | <=1 | > 7.00 | 2.01 | >4.01 | 1.201 | <=1.5 | fold change (FC) [16]: <=1; fold change (FC) [18]: 1.01; fold change (FC) [19]: 1.01; fold change (FC) [22]: 1.01; fold change (FC) [23]: <=1; fold change (FC) [26]: <=1
2 | C[C@H](Cc1nncn1C)c1cccc(N2Cc3c(cc(CN4CC[C@H](F)C4)cc3C(F)(F)F)C2=O)c1 | 2.01 | 2.01 | >=5 | >3.01 | 1.401 | 2.01 | >1.61 | 1.01 | >4 | 1.01 | >=1.001 | >1.601 | >=7.5 | 1.201 | 2.01 | > 7.00 | >4 | >4.01 | 1.401 | 2.01 | pKd [27]: > 7.00; fold change (FC) [16]: 2.01; fold change (FC) [18]: 2.01; fold change (FC) [19]: >=5; fold change (FC) [22]: 1.01; fold change (FC) [23]: 1.01; fold change (FC) [26]: 1.01
3 | Cn1cnnc1CC1(c2cccc(N3Cc4c(cc(CN5CCC6(CC6)C5)cc4C(F)(F)F)C3=O)c2)COC1 | – | 2.01 | – | 2.51 | 1.401 | 2.01 | >1.61 | – | >4 | 1.31 | – | >1.601 | >=7.5 | 1.201 | – | > 7.00 | >4 | >4.01 | 1.401 | 2.01 | fold change (FC) [28]: 1; fold change (FC) [29]: 1; fold change (FC) [30]: 1; fold change (FC) [31]: 1; fold change (FC) [32]: 1; fold change (FC) [33]: 1; fold change (FC) [34]: 2.01; fold change (FC) [35]: 1.51
4 | Cc1cc(C(=O)Nc2cccc([C@H](C)Cc3nncn3C)c2)nc(C2CC2)n1 | 2.01 | 1.51 | >=5 | <=2.5 | <=1.2 | 2.01 | >1.61 | 2.01 | <=2 | 1.51 | >=1.001 | >1.601 | >=7.5 | <=1.2 | 2.01 | > 7.00 | >4 | <=2.5 | 1.401 | 2.01 | fold change (FC) [28]: 1; fold change (FC) [29]: 1; pKd [27]: > 7.00; fold change (FC) [32]: 1; fold change (FC) [33]: 1; fold change (FC) [16]: 2.01; fold change (FC) [18]: 2.01; fold change (FC) [19]: >=5; fold change (FC) [34]: 1.51; fold change (FC) [22]: 2.01; fold change (FC) [23]: 1.01; fold change (FC) [35]: 1; fold change (FC) [26]: 2.01
